Like-named read-outs stand apart in the source and are kept apart here.
Columns and labels:
[1] = test system: P. falciparum 3D7 parasites; test: P. falciparum growth inhibition assay, 1-cycle (72 h treatment), SYBR DNA staining (library screen at 2 μg/mL and dose-response); assay type: cell-based, Plasmodium falciparum; conditions: for activity at 2 µg/mL: Plasmodium falciparum, 3D7
[2] = test system: T. gondii RH strain (RH-Tub-eYFP) tachyzoites; test: microbe, parasite or virus in culture; assay type: cell-based, Toxoplasma gondii; conditions: for percent parasite growth at 2 µg/mL: Toxoplasma gondii
[3] = test system: P. falciparum 3D7 parasites; test: P. falciparum growth inhibition assay, 2-cycle (120 h treatment), delayed-death screen and dose-response; assay type: cell-based, Plasmodium falciparum; conditions: for activity at 2 µg/mL: Plasmodium falciparum, 3D7
[4] = library screen at 2 μg/mL, 72 h, % growth, replicate 1
[5] = library screen at 2 μg/mL, 72 h, % growth, replicate 2
[6] = library screen at 2 μg/mL, 120 h, % growth, replicate 1
[7] = library screen at 2 μg/mL, 120 h, % growth, replicate 2
[8] = P. falciparum, 72 h, parasite screen 2 μg/mL, % growth, replicate 1
[9] = P. falciparum, 72 h, parasite screen 2 μg/mL, % growth, replicate 2
[10] = T. gondii, 72 h, parasite screen 2 μg/mL, % growth, replicate 1
[11] = T. gondii, 72 h, parasite screen 2 μg/mL, % growth, replicate 2
[12] = P. falciparum, 120 h, parasite screen 2 μg/mL, % growth, replicate 1
[13] = P. falciparum, 120 h, parasite screen 2 μg/mL, % growth, replicate 2
[14] = P. falciparum, 72 h, screen at 2 μg/mL, replicate 1
[15] = P. falciparum, 72 h, screen at 2 μg/mL, replicate 2
[16] = T. gondii, 72 h, screen at 2 μg/mL, replicate 1
[17] = T. gondii, 72 h, screen at 2 μg/mL, replicate 2
[18] = P. falciparum, 120 h, screen at 2 μg/mL, replicate 1
[19] = P. falciparum, 120 h, screen at 2 μg/mL, replicate 2

CC(=O)O[C@@H]1C[C@]2(C)[C@@]3(CO)[C@H](O)C(=O)C(C)=C[C@H]3O[C@H]1[C@@]21CO1 [Acetyldeoxynivalenol, 3-]
Pf_72h_%Growth_Rep1 [1, 4]: 11.16%
Pf_72h_%Growth_Rep2 [1, 5]: 9.81%
Tg_72h_%Growth_Rep1 [2, 4]: 4.23%
Tg_72h_%Growth_Rep2 [2, 5]: 6.65%
Pf_120h_%Growth_Rep1 [3, 6]: 14.50%
Pf_120h_%Growth_Rep2 [3, 7]: 5.88%

O=C1NCc2nc3ccccc3c(=O)n2-c2ccccc21 [Sclerotigenin]
activity at 2 µg/mL ([1]; P. falciparum, 72 h, parasite screen 2 μg/mL, % growth, replicate 1, read-out: Pf_72h_%Growth_Rep1): 90.7%
activity at 2 µg/mL ([1]; P. falciparum, 72 h, parasite screen 2 μg/mL, % growth, replicate 2, read-out: Pf_72h_%Growth_Rep2): 89.5%
percent parasite growth at 2 µg/mL ([2]; 72 h, T. gondii, 72 h, parasite screen 2 μg/mL, % growth, replicate 1, read-out: Tg_72h_%Growth_Rep1): 82%
percent parasite growth at 2 µg/mL ([2]; 72 h, T. gondii, 72 h, parasite screen 2 μg/mL, % growth, replicate 2, read-out: Tg_72h_%Growth_Rep2): 103%
activity at 2 µg/mL ([3]; P. falciparum, 120 h, parasite screen 2 μg/mL, % growth, replicate 1, read-out: Pf_120h_%Growth_Rep1): 169%
activity at 2 µg/mL ([3]; P. falciparum, 120 h, parasite screen 2 μg/mL, % growth, replicate 2, read-out: Pf_120h_%Growth_Rep2): 96.5%

CO[C@H]1C[C@H](O[C@H]2[C@H](C)O[C@@H](O[C@@H]3/C(C)=C/C[C@@H]4C[C@@H](C[C@]5(C=C[C@H](C)[C@@H](C(C)C)O5)O4)OC(=O)[C@@H]4C=C(C)[C@@H](O)[C@H]5OC/C(=C\C=C\[C@@H]3C)[C@]54O)C[C@@H]2OC)O[C@@H](C)[C@H]1NC(C)=O [Eprinomectin B1b]
Pf_72h_%Growth_Rep1 [1]: 56.32%
Pf_72h_%Growth_Rep2 [1]: 35.21%
Tg_72h_%Growth_Rep1 [2]: 157.07%
Tg_72h_%Growth_Rep2 [2]: 101.19%
Pf_120h_%Growth_Rep1 [3]: 33.01%
Pf_120h_%Growth_Rep2 [3]: 22.71%

COC(=O)C1=CO[C@@H](C)[C@@H]2CN3CCc4c([nH]c5cc(OC)c(OC)cc45)[C@H]3C[C@H]12 [Reserpiline]
Pf_72h_%Growth_Rep1 [1, 8]: 29.90%
Pf_72h_%Growth_Rep2 [1, 9]: 27.58%
Tg_72h_%Growth_Rep1 [2, 10]: 145.39%
Tg_72h_%Growth_Rep2 [2, 11]: 95.76%
Pf_120h_%Growth_Rep1 [3, 12]: 31.58%
Pf_120h_%Growth_Rep2 [3, 13]: 13.59%

CC[C@@H](C)/C=C(C)/C=C/C(=O)c1c(O)c(-c2ccc(O)cc2)cn(O)c1=O [Tenellin]
Pf_72h_%Growth_Rep1 [1, 14]: 58.91%
Pf_72h_%Growth_Rep2 [1, 15]: 96.26%
Tg_72h_%Growth_Rep1 [2, 16]: -2.05%
Tg_72h_%Growth_Rep2 [2, 17]: 1.18%
Pf_120h_%Growth_Rep1 [3, 18]: 76.98%
Pf_120h_%Growth_Rep2 [3, 19]: 107.08%

COc1ccc2c(c1)N(C(C)=O)[C@H]1[C@@H]3CO[C@H](C)[C@@H]4CN5CC[C@]21[C@@H]5C[C@H]34 [Strychnospermine]
Pf_72h_%Growth_Rep1 [1, 8]: 72.81%
Pf_72h_%Growth_Rep2 [1, 9]: 85.90%
Tg_72h_%Growth_Rep1 [2, 10]: 96.72%
Tg_72h_%Growth_Rep2 [2, 11]: 111.43%
Pf_120h_%Growth_Rep1 [3, 12]: 157.71%
Pf_120h_%Growth_Rep2 [3, 13]: 76.73%

CCC(=O)Nc1c2sscc-2n(C)c1=O [Aureothricin]
Pf_72h_%Growth_Rep1 [1, 4]: 7.64%
Pf_72h_%Growth_Rep2 [1, 5]: 5.69%
Tg_72h_%Growth_Rep1 [2, 4]: 1.55%
Tg_72h_%Growth_Rep2 [2, 5]: 1.43%
Pf_120h_%Growth_Rep1 [3, 6]: 11.34%
Pf_120h_%Growth_Rep2 [3, 7]: -0.06%

Cc1cc(O)c2c(c1)C(=O)C13C(=C2O)C(=O)C2C(O)C1C1C(O)C3C(=O)C3=C(O)c4c(O)cc(C)cc4C(=O)C321 (stereo not drawn) [Rugulosin + form]
Pf_72h_%Growth_Rep1 [1, 8]: 87.73%
Pf_72h_%Growth_Rep2 [1, 9]: 120.80%
Tg_72h_%Growth_Rep1 [2, 10]: 114.00%
Tg_72h_%Growth_Rep2 [2, 11]: 82.13%
Pf_120h_%Growth_Rep1 [3, 12]: 82.55%
Pf_120h_%Growth_Rep2 [3, 13]: 131.94%

C[C@@H]1CCC[C@H](O)CCC/C=C/c2cc(O)cc(O)c2C(=O)O1 [Zearalenol, beta-]
Pf_72h_%Growth_Rep1 [1, 14]: 92.46%
Pf_72h_%Growth_Rep2 [1, 15]: 126.46%
Tg_72h_%Growth_Rep1 [2, 16]: 134.26%
Tg_72h_%Growth_Rep2 [2, 17]: 80.69%
Pf_120h_%Growth_Rep1 [3, 18]: 110.27%
Pf_120h_%Growth_Rep2 [3, 19]: 105.90%

Source: PMC12396409, “Screening and hit evaluation of a microbial metabolite library against the pathogenic Plasmodium falciparum and Toxoplasma gondii parasites” (International Journal for Parasitology: Drugs and Drug …, 2025)
